This passage reports IC50 results from patent US7514579B2, “Boronic chalcone derivatives and uses thereof” (Johns Hopkins University, priority 2002, dated 2009).

Common to all, as to details: MTT growth inhibition, 96 hours exposure
For test [1], the system named is MDA-MB-231 (estrogen independent) human breast cancer cells. The test is described as follows: MTT survival assay, MDA-MB-231 cells. Type of test: cell-based. Here is the method: (§1) The cytotoxicity of the boronic chalcone analogs and carboxylic acid chalcones were evaluated and compared by MTT survival assays of human breast cancer MDA-MB-435, MDA-MB-231, Wt-MCF7, and MCF-10A cells treated at different concentrations of the analogs.
(§2) Human breast cancer MDA-MB-231 (estrogen independent) and wtMCF7 (estrogen dependent) human breast cancer cells were maintained in DMEM medium supplemented with 5% fetal bovine serum, 2 mM glutamine, and 100 units/mL penicillin/streptomycin. MDA-MB-435 (estrogen independent) human breast cancer cells were maintained in IMEM medium supplemented with 5% fetal bovine serum and 2 mM glutamine. Each cell line used has unique growth characteristics spanning the spectrum of tumor invasiveness, differentiation and estrogen dependence. Normal breast epithelial cell lines, MCF-10A and MCF-12A, were maintained in 5% and 10% horse serum in DMEM:Ham's F12 media, respectively, supplemented with 2 mM glutamine, 100 units/mL penicillin/streptomycin, 0.02 μg/mL EGF, 0.01 mg/mL insulin, and 0.1 μg/mL cholera toxin.
(§3) Cells were incubated at 37° C. in a 5% CO2 atmosphere. The MTT colorimetric assay was used to determine growth inhibition (Mosmann, T., J. Immunol. Methods, 1983, 65, 55-63). Cells were plated in 96-well plates and allowed to attach for 24 hours. Chalcone derivatives based on compounds 20 and 21 below were dissolved in DMSO at 10 mM concentrations. Cells were expose in quadruplicate well to chalcone concentrations of 0.5-100 µM for 96 hours. After 96 hours the media was aspirated, and 100 µL of 1 mg/mL MTT solution (Sigma Chemical Co.) diluted in serum free media was added to each well. After 4 hours of incubation, the MTT solution was removed and 200 µL of 1:1 (v/v) solution of DMSO:ethanol was added to each well to dissolve formazan crystals. The absorbance at A540nm was determined on a plate reader. IC50 values were determined from log plots of percent of control vs. concentration. Each compound was assayed twice in quadruplicate. Analogs 3g and 9 have been previously described (Stoll R., et al., supra; Kussie, P. H., et al., supra) and were included for comparative purposes.

Test [2] deals with wtMCF7 (estrogen dependent) human breast cancer cells. The test is described as follows: MTT survival assay, Wt-MCF7 cells. The test is classed as cell-based. Here is the method: as §1, §2, §3
In test [3] the test system is MCF-10A normal breast epithelial cell line. The test is described as follows: MTT survival assay, MCF-10A cells. Type of test: cell-based, human. Here is the method:
as §1, §2, §3
In general terms: Tetrazolium dyes change colour on reduction, which living cells bring about.

For test [4], the system named is MDA-MB-435 (estrogen independent) human breast cancer cells. The test is described as follows: MTT survival assay, MDA-MB-435 cells. The test is classed as cell-based. Here is the method: as §1, §2, §3
The subject of test [5] is MCF-12A normal breast epithelial cell line. Put plainly: MTT survival assay, MCF-12A cells. The test is classed as cell-based, human. The method, then: as §1, §2, §3

The term IC50 denotes the concentration needed to halve the response being measured. High values mean weaker potency, low ones greater potency. For the compound `O=C(/C=C/c1ccc(I)cc1)c1ccc(B(O)O)cc1` [Compound 3a], the 50% inhibitory concentration (IC50) came out at 8.8 µM in test [1]; 7 µM in test [2]; 75 µM in test [3]; 10 µM in test [4]; 63 µM in test [5].

In the case of `O=C(/C=C/c1ccc(Cl)c(Cl)c1)c1ccc(B(O)O)cc1` [Compound 3b], the IC50 in test [1] was found to be 9.5 µM; in test [2] it was 5 µM; in test [3], 18 µM; in test [4], 3.5 µM; in test [5], 11 µM.

For `O=C(/C=C/c1ccc(F)c(Cl)c1)c1ccc(B(O)O)cc1` [Compound 3c], the IC50 in test [1] was 8.5 µM; in test [2], 6 µM; in test [3], 25 µM; in test [4] it was 16 µM; in test [5] it was 22 µM.

Regarding `O=C(/C=C/c1ccc(F)c(F)c1)c1ccc(B(O)O)cc1` [Compound 3d], the 50% inhibitory concentration (IC50) in test [1] was 8.8 µM; in test [2], 7.8 µM; in test [3] it was 18 µM; in test [4], 8.8 µM; in test [5] it was 39 µM.

Consider `O=C(/C=C/c1ccc(F)c(Br)c1)c1ccc(B(O)O)cc1` [Compound 3e], for which the IC50 turned out to be 9.5 µM in test [1]; 8.5 µM in test [2]; 17 µM in test [3]; 8.8 µM in test [4]; 38 µM in test [5].

Regarding `O=C(O)COc1ccc(C(=O)/C=C/c2ccc(I)cc2)cc1` [Compound 3f], the IC50 in test [1] worked out at 44 µM; in test [2] it was 9 µM; in test [3], 44 µM; in test [4], 18 µM; in test [5], 38 µM.

For `O=C(O)COc1ccc(C(=O)/C=C/c2ccc(Cl)c(Cl)c2)cc1` [Compound 3g, reference compound], the half-maximal inhibitory concentration (IC50) in test [1] came to 9 µM; in test [2], 13 µM; in test [3], 13 µM; in test [4], 9 µM; in test [5], 15 µM.

Turning to `O=C(/C=C/c1ccc(I)cc1)c1ccc(O)cc1` [Compound 6], the IC50 in test [1] stood at 8 µM; in test [2] it was 7 µM; in test [3], 15 µM; in test [4], 4.5 µM; in test [5], 30 µM.

Consider `O=C(/C=C/c1ccc(I)cc1)c1ccc(OCB(O)O)cc1` [Compound 7], for which the IC50 in test [1] is 11 µM; in test [2] it was 9.5 µM; in test [3], 38 µM; in test [4], 18 µM; in test [5], 100 µM.

For the compound `O=C(/C=C/c1ccc(Cl)c(Cl)c1)c1ccc(B(O)O)cc1` [Compound 8], the IC50 is 8 µM in test [1]; 5.5 µM in test [2]; 18 µM in test [3]; 4 µM in test [4]; 15 µM in test [5].

With `O=C(O)COc1ccc(C(=O)/C=C/c2ccc(Cl)c(Cl)c2)cc1` [Compound 9, reference compound], the concentration for half-maximal inhibition (IC50) turned out to be 18 µM in test [1]; 15 µM in test [2]; 12 µM in test [3]; 13 µM in test [4]; 28 µM in test [5].
